Reference: US20260240976A1, “T[…] VACCINES BASED ON VALIDATED TARGET EPITOPES” (Deutsches Krebsforschungszentrum Stiftung des öffentlichen …, priority 2023, published 2026)
Where a SMILES comes first, the peptide text is derived from it.

Assays:
HPV16-positive cells = experiment: Cytotoxicity assay (VITAL FR / live-cell imaging-based) with peptide-specific CD8+ T cells; parameters: species or system human; key: +: cytotox: Ability of peptide-specific T cells to kill HPV16-positive cells.; +*: *highlights data from published resources.; *highlights data from published resources; conditions: HLA restriction A02
Description: The flow cytometry based VITAL FR cytotoxicity assay was used as published by Stanke et al. (Stanke et al., 2010) to assess whether peptide-specific T cells are able to specifically kill HPV-transformed target cells. Briefly, two HLA-A2+ cell lines, a HPV16-negative (HPV16−) control cell line (C33A) and a HPV16-positive (HPV16+) target cell line (CaSki) were fluorescently labeled with either FarRed or CFSE and were co-incubated with peptide-specific CD8+ T cells as effector cells. After 48 h co-incubation, the fluorescently labeled cells were analyzed by flow cytometry to determine the surviving cells and calculate the specific cytolytic function of the effector cells by the ratio of target and control cells.
CaSki and C33A cells were fluorescently labeled with CFSE and FarRed, respectively. Cells of both cell lines were harvested and resuspended in plain RPMI medium at a concentration of 1×10^6 cells/mL. For cell labeling, 5 μM CSFE were added to CaSki cells and 0.25 μM FarRed were added to C33A cells. The cells were incubated at 37° C. and the reaction was stopped after 10 min by addition of 50 mL RPMI with 10% FBS. The cells were centrifuged at 300×g for 5 min, the supernatant was discarded and the cells were resuspended in their cell culture medium. The labeled cells were seeded in T25 cell culture flasks with 1-2×10^6 cells/flask.
On the next day, the labeled CaSki and C33A as well as the epitope-specific semi-long-term T cell lines (described in 1.6) were harvested. CD8+ T cells were isolated from the epitope-specific semi-long-term T cell lines using the MACS CD8+ T cell isolation kit (Miltenyi Biotec) according to the manufacturer's protocol for LS columns. The CD8+ T cells were resuspended in T cell medium and added to wells of a F-bottom 96-well plate in serial dilutions to achieve triplicates of 6×10^4, 3×10^4, 1.5×10^4, 0.75×10^4 and 0.375×10^4 cells per well. The CaSki and C33A cells were mixed 1:1 in T cell medium and 3×10^3 cells were added to each well containing T cells. Thereby effector:target (E:T) ratios of […] were achieved. Additionally, triplicates of mixed target cells without T cells were seeded, which is referred to as E:T 0. After 48 h incubation at 37° C., 5% C02, the cells were harvested and analyzed at a BD FACS Canto™ II analyzer using the BD FACS Diva Software Version 6. The obtained data were analyzed with the FlowJo software Version 10 by applying the same gating strategy to all samples. Subsequently, the equations (1) and (2) given below were applied in Excel (Microsoft Office 2016) to calculate specific killing.
Semi long-term T cell lines were set up to obtain high numbers of T cells, which are required for the analysis of epitope specific cytotoxic T cell responses in VITAL FR cytotoxicity assays. Autologous DCs were generated from PBMCs as described in 1.7 and loaded with the desired HPV16 peptide. PBMCs of the same donor were thawed and resuspended in T cell medium supplemented with rhIL-7 (10 ng/mL) and rhIL-15 (20 ng/mL). 1×10^7 PBMCs/well were seeded to a 24-well plate in a total volume of 1 mL/well. Peptide-loaded DCs were added in a ratio of 50:1 (PBMCs:DCs) in 1 mL rhIL-7 (10 ng/mL) and rhIL-15 (20 ng/mL) supplemented T cell medium to achieve a final volume of 2 mL. The cell cultures were fed with rhIL-2 (final concentration: 40 U/mL) every other day. If the medium turned yellow the feeding was combined with a half medium change with 1 mL fresh IL-2 supplemented T cell medium. After eight days, the peptide stimulation with peptide-loaded DCs was repeated and cultivation was continued. On day 15, the T cell lines were harvested and used for CD8+ T cell isolation and cytotoxicity assays.
In addition to the VITAL FR assay described herein above, a newly established live-cell imaging-based cytotoxicity assay was applied. […]

[1] = tested on: peptide-specific T cell cultures; experiment: T cell phenotyping and intracellular cytokine staining (IFN-gamma, TNF-alpha); format: cell-based, human; parameters: key: +: cytokine: Immunogenicity of the peptide shown by intracellular cytokine staining (IFN-gamma, TNF-alpha); +*: *highlights data from published resources.; *highlights data from published resources
Description: To characterize and quantify the responsive cells upon peptide stimulation, the peptide-specific T cell cultures with positive ELISpot results were further analyzed with T cell phenotyping and intracellular cytokine staining (ICS) assessed by flow cytometry.
The cells of the respective continued short-term T cell culture as well as the DMSO-stimulated and an unresponsive T cell line were harvested into 2 mL reaction tubes and centrifuged at 400×g for 10 min. The supernatant was discarded and the pellet of the unresponsive T cell line was resuspended in 100 μL ELISpot medium and used as unstimulated and unstained control. The pellets of the responsive and the DMSO-stimulated T cell lines were resuspended in 200 μL ELISpot medium and split equally into two wells of a V-bottom 96-well plate. One well of the responsive T cell lines was re-stimulated with 10 μg/mL of its specific peptide while the other well was mock stimulated with 0.1% (v/v) DMSO. As positive control, one well of the DMSO-stimulated T cell line was activated by treatment with 20 ng/ml Phorbol 12-myristate 13-acetate and 1 μM lonomycin. Then, 1:10 diluted GolgiStop (containing monensin) and 1:15 diluted GolgiPlug (containing brefeldin A) were added to all wells to inhibit intracellular transport processes. Monensin inhibits the trans-Golgi transport, while brefeldin A inhibits transport between the ER and the Golgi (Chardin and McCormick, 1999; Mollenhauer et al., 1990). The stimulated cells were incubated for 5 h at standard culture conditions.
After incubation, the cells were resuspended, centrifuged at 400×g for 5 min and the supernatant was discarded. Then, the cells were resuspended in 50 μL cold staining buffer (unstained) or 50 μL cold staining buffer containing the phenotyping antibodies against CD3, CD4, CD8 and the LIVE/DEAD™ Fixable Near-IR Dead Cell Stain (unstimulated and stimulated) and incubated at 4° C. for 30 min. After the surface staining, the cells were washed twice with 200 μL staining buffer and centrifugation at 1400 rpm, followed by fixation with 1% paraformaldehyde (PFA) solution for 15 min at 4° C. All following centrifugation steps were carried out at 1400 rpm for 5 min. After fixation, the cells were again washed twice with 200 μL cold staining buffer and were then resuspended in 100 μL 1× perm/wash buffer diluted in PBS (provided is 10×) for 15 min at 4° C. for cell membrane permeabilization. Subsequently, the plate was centrifuged and the supernatant was discarded. The cells were resuspended in 50 μL perm/wash buffer diluted in PBS (unstained) or 50 μL perm/wash buffer containing the intracellular cytokine antibodies against IFNγ, TNFα and granzyme B (unstimulated and stimulated) for 30 min at 4° C. After intracellular cytokine staining, the cells were washed twice with 200 μL 1× perm/wash buffer. Then 100 μL fix/perm solution (provided in the BD Cytofix/Cytoperm kit) were added per well. After 20 min of incubation at 4° C., the cells of each well were washed twice with 200 μL 1× perm/wash buffer before being resuspended in 100 μL staining buffer and stored at 4° C. overnight.
OneComp eBeads™ (eBeads) and ArC™ Amine Reactive Compensation beads (ArC beads) were stained as compensation controls. For each antibody, 50 μL of the eBeads suspension were stained with the same dilution as used for staining the cells. The ArC beads were stained with 1 μL LIVE/DEAD™ Fixable Near-IR Dead Cell Stain stock solution in 50 μL staining buffer. The beads were incubated at 4° C. for 30 min and were then washed two times with 1 mL staining buffer and centrifugation at 400×g. Finally, the stained beads were resuspended in 400 μL staining buffer, one drop of ArC™ negative beads was added to the labelled ArC beads, and all beads were stored at 4° C. overnight.
On the next day, the samples and the single stained compensation controls were acquired at a BD FACS Canto™ II analyzer using the BD FACS Diva Software Version 6. […]

[2] = tested on: short-term antigen-specific T cell lines generated from PBMCs; experiment: Interferon-γ ELISpot assay on short-term antigen-specific T cell lines; format: cell-based, human

For `CSCC[C@H](N)C(=O)N[C@@H](CC(C)C)C(=O)N[C@@H](CC(=O)O)C(=O)N[C@@H](CC(C)C)C(=O)N[C@@H](CCC(N)=O)C(=O)N1CCC[C@H]1C(=O)N[C@@H](CCC(=O)O)C(=O)N[C@H](C(=O)O)[C@@H](C)O` [compound 16] (H-MLDLQPET-OH), the “cytotox: Ability of peptide-specific T cells to kill HPV16-positive cells” value (shortened to “cytotox: Ability”) (HPV16-positive cells) was “+”.
For `CSCC[C@H](NC(=O)[C@H](CC(C)C)NC(=O)[C@H](CC(C)C)NC(=O)[C@H](CC(=O)O)NC(=O)[C@H](CCC(=O)O)NC(=O)[C@H](CC(C)C)NC(=O)[C@@H](NC(=O)[C@@H](N)CCCNC(=N)N)[C@@H](C)O)C(=O)NCC(=O)N[C@H](C(=O)N[C@@H](CC(C)C)C(=O)O)[C@@H](C)O` [compound 19] (H-RTLEDLLMGTL-OH), the “cytotox: Ability” value (HPV16-positive cells) was “+”.
With `CC[C@H](C)[C@H](NC(=O)[C@H](CC(=O)O)NC(=O)[C@H](Cc1c[nH]cn1)NC(=O)[C@@H](NC(=O)[C@@H](NC(=O)[C@@H](N)[C@@H](C)O)[C@@H](C)O)[C@@H](C)CC)C(=O)N[C@H](C(=O)N[C@@H](CC(C)C)C(=O)N[C@@H](CCC(=O)O)C(=O)N[C@@H](CS)C(=O)N[C@H](C(=O)O)C(C)C)[C@@H](C)CC` [compound 49] (H-TTIHDIILECV-OH) the “cytotox: Ability” value (HPV16-positive cells) was “+”.
With `CSCC[C@H](NC(=O)[C@@H](N)Cc1ccc(O)cc1)C(=O)N[C@@H](CC(C)C)C(=O)N[C@@H](CC(=O)O)C(=O)N[C@@H](CC(C)C)C(=O)N[C@@H](CCC(N)=O)C(=O)N1CCC[C@H]1C(=O)N[C@@H](CCC(=O)O)C(=O)O` [compound 32] (H-YMLDLQPE-OH) the “cytotox: Ability” value (HPV16-positive cells) was “+”.
For `CC[C@H](C)[C@H](NC(=O)[C@@H]1CCCN1C(=O)[C@H](CS)NC(=O)[C@@H](NC(=O)[C@@H](NC(=O)CNC(=O)[C@H](CC(C)C)NC(=O)[C@@H](NC(=O)CNC(=O)[C@H](CCSC)NC(=O)[C@@H](N)CC(C)C)[C@@H](C)O)[C@@H](C)CC)C(C)C)C(=O)O` [compound 25] (H-LMGTLGIVCPI-OH), the “cytotox: Ability” value (HPV16-positive cells) was “+”.
In the case of `CC[C@H](C)[C@H](NC(=O)[C@@H]1CCCN1C(=O)[C@H](CS)NC(=O)[C@@H](NC(=O)[C@@H](NC(=O)CNC(=O)[C@H](CC(C)C)NC(=O)[C@@H](NC(=O)CNC(=O)[C@@H](N)CCSC)[C@@H](C)O)[C@@H](C)CC)C(C)C)C(=O)O` [compound 33] (H-MGTLGIVCPI-OH), the “cytotox: Ability” value (HPV16-positive cells) is reported as “+”.
In the case of `CC[C@H](C)[C@H](N)C(=O)N[C@@H](CCCNC(=N)N)C(=O)N[C@H](C(=O)N[C@@H](CC(C)C)C(=O)N[C@@H](CCC(=O)O)C(=O)N[C@@H](CC(=O)O)C(=O)N[C@@H](CC(C)C)C(=O)N[C@@H](CC(C)C)C(=O)N[C@@H](CCSC)C(=O)NCC(=O)N[C@H](C(=O)O)[C@@H](C)O)[C@@H](C)O` [compound 52] (H-IRTLEDLLMGT-OH), the “cytotox: Ability” value (HPV16-positive cells) is reported as “+”.
`CSCC[C@H](NC(=O)[C@@H](N)Cc1ccc(O)cc1)C(=O)N[C@@H](CC(C)C)C(=O)N[C@@H](CC(=O)O)C(=O)N[C@@H](CC(C)C)C(=O)N[C@@H](CCC(N)=O)C(=O)N1CCC[C@H]1C(=O)N[C@@H](CCC(=O)O)C(=O)N[C@H](C(=O)N[C@H](C(=O)N[C@@H](CC(=O)O)C(=O)O)[C@@H](C)O)[C@@H](C)O` [compound 15] was tested, and the “cytotox: Ability” value (HPV16-positive cells) was “+”.
For “137 (RHYCYSLY; Human papillomavirus 16) [compound 137]”, the “cytokine: Immunogenicity of the peptide shown by intracellular cytokine staining (IFN-gamma, TNF-alpha)” value (from here on “cytokine: Immunogenicity”) ([1]; HLA restriction A03) was “+” and the “ELISpot: Immungenicity of the peptide shown by IFN-gamma ELISPOT analysis” value (shortened to “ELISpot: Immungenicity”) ([2]; HLA restriction A03) was “+”.
“4 (YGVCDKCLKFY; Human papillomavirus 16) [compound 4]” was tested, and the “cytokine: Immunogenicity” value ([1]; HLA restriction A01) was “+” and the “ELISpot: Immungenicity” value ([2]; HLA restriction A01) was “+”.
For “99 (RPRKLPQLCTE; Human papillomavirus 16) [compound 99]”, the “cytokine: Immunogenicity” value ([1]; HLA restriction B07) was “+” and the “ELISpot: Immungenicity” value ([2]; HLA restriction B07) was “+”.
With “59 (FAFRDLCIVYR; Human papillomavirus 16) [compound 59]” the “cytokine: Immunogenicity” value ([1]; HLA restriction A11) was “+” and the “ELISpot: Immungenicity” value ([2]; HLA restriction A11) was “+”.
For “108 (AFRDLCIVY; Human papillomavirus 16) [compound 108]”, the “cytokine: Immunogenicity” value ([1]; HLA restriction B15) was “+”, the “ELISpot: Immungenicity” value ([2]; HLA restriction B15) was “+” and the “rates of immunoactivation in PBMC samples, CD8 T cell responses and/or numbers of HPV16 positive cell lines presenting the peptide as HLA-complexes” value ([2]; comparison among the peptides in Table 1) was “highest rates of immunoactivation in PBMC samples, to induce the strongest CD8 T cell responses, and/or shown to be presented as HLA-complexes by the highest numbers of HPV16 positive cell lines”.
